The values below come from patent publication US12435312B2, “Quantifying cell-derived changes in collagen synthesis, alignment, and mechanics in a 3D connective tissue model” (Brown University, priority 2022, dated 2025).

Assay [1] relates to normal human dermal fibroblasts (ring-shaped tissue constructs). Briefly: Tensile mechanical testing to failure of ring-shaped tissue constructs. The assay is classed as cell-based. The method, then: (§1) Cell Source and Culture Conditions: Juvenile normal human dermal fibroblasts (jNHDF) were purchased from PromoCell (Heidelberg, Germany). Cells were expanded in Dulbecco's Modified Eagle's medium (DMEM) with high glucose, 1-glutamine, phenol red, and sodium pyruvate (11995065, Thermo Fisher Scientific, Waltham, MA) supplemented with 10% FBS and 1% penicillin/streptomycin at 10% CO2 and 37° C. Cells were passaged (P3-8) and expanded using a standard trypsin protocol. Cells were rinsed with 1× PBS (SH30256.FS, Thomas Scientific, Swedesboro, NJ), exposed to 0.05% trypsin in PBS for 4 min, quenched with serum containing media, centrifuged at 220g for 3 min, resuspended, counted, and plated at a density of 3.5-7.0×10^3 cells per cm^2. Ring-shaped tissue constructs (5 mm) were seeded at 3×10^5 cells per well in 1 mL of media exchanged every 2/3 days unless otherwise noted. For media composition experiments, tissues were cultured in serum-free DMEM supplemented with 0.1 mm 2-phospho-l-ascorbic acid trisodium salt (SigmaAldrich, St. Louis, MO), 50.0 μg mL^−1 I-proline (Thermo Fisher), 1% penicillin/streptomycin (SFM+), advanced DMEM (12491015) supplemented with 4 mm GlutaMax and 1% penicillin/streptomycin (SFMA), or a 50:50 mixture of the two (50:50 SFM+/SFMA).
Fabrication of Ring-Shaped Tissue Constructs: Ring-shaped molds were designed usingCADsoftware (SolidWorks Corporation, Concord, MA) and fabricated from stainless steel 316 L on a CNC lathe (Protolabs, Maple Plain, MN). The stainless steel parts were designed to fit into a single well of a standard 24 well plate. Ring-shaped agarose gels were cast by placing the stainless steel part into a well filled with 1.5 mL of molten, sterile 2% (w/v) agarose (BP160-500, Fisher Scientific, Hampton, NH) in 1× PBS, allowed to harden for 15 min, and removed. […] A lid mirroring a standard 24 well plate lid was fabricated out of aluminum with through holes above each well to permit the placement of all 24 stainless steel parts simultaneously. Gels were equilibrated in serum-free DMEM with 1% penicillin/streptomycin at 37° C., 10% CO2 for at least 24 h before use.
Drug Treatment: For all dose-response experiments, ring constructs were allowed to form for 24 h prior to treatment. FBS (12483020, Life Technologies, Carlsbad, CA), Y-27632 (S1049, Selleck Chemicals, Houston, TX), TGF-β1 (7754-BH-25, […]), and SB-431542 (S1067, Selleck Chemicals) doses were freshly prepared from frozen aliquots and resuspended in 50:50 SFM+/SFMA medium prior to feeding 3× per week. Doses of FBS were prepared at 10%, 1.0%, and 0.1% [v/v] concentrations with a 0% control. Y-27632 and SB-431542 were reconstituted in dimethyl sulfoxide (DMSO) and resuspended at a final concentration of 10, 1.0, 0.1, and a 0 μm vehicle control with a DMSO final volume always less than 0.1%. TGF-β1 was reconstituted in 0.1% bovine serum albumin (BSA) in 4 mm HCl (RB04, […]) and prepared at a final concentration of 10, 2, 0.4, and 0 ng mL^−1 vehicle control.
Mechanical Testing: Ring-shaped microtissues were mechanically tested using custom designed grippers on a uniaxial tensile testing setup (Instron 5943, Norwood, MA) equipped with a 5N (5 mn resolution) load cell. Agarose molds were trimmed with a razor blade and top and sideview brightfield images were obtained on a Nikon Eclipse Ts2 microscope (Nikon, Tokyo, Japan) to determine the initial elliptical cross-sectional area (A0). Just prior to testing, tissue constructs were gently removed from the agarose mold using forceps and mounted between grippers which consisted of two horizontal cylindrical segments with a circular diameter of 3 mm fabricated from glass filled nylon (PA614-GS, ProtoLabs). Tissues were brought to a 5 mm initial grip-to-grip distance and tests were performed in PBS at 37° C. […]

Assay [2] has the same test system. Briefly: Collagen quantification (pepsin-acid soluble collagen, sircol dye binding assay) of ring-shaped tissue constructs. The assay is classed as cell-based. As to conditions: for effect on collagen content: p>0.05. The method, then:
as §1
Drug Treatment: For all dose-response experiments, ring constructs were allowed to form for 24 h prior to treatment. […]
Collagen Quantification: Tissues were homogenized with 2 mm glass beads for 2/3 min and solubilized in 0.1 mg mL^−1 pepsin in 0.5 m acetic acid at 4° C. for 48 h. Total pepsin-acid soluble collagen was quantified via sircol dye binding assay per kit instructions (S5000, Biocolor, United Kingdom). Absorbance was measured at 525 nm and collagen content was determined from a standard curve and adjusted to microgram equivalent of native pepsin-acid soluble collagen.

Assay [3] deals with actomyosin network. The note with it: disruption of the actomyosin network; cited from earlier work.
The mark [4] stands for this setting: 0.1, 1.0, 10.0 μM in 50:50 media from 24 h after seeding, 7 or 14 days, p>0.05.
The mark [5] stands for this setting: highest inhibitory concentration (10.0 μM) in 50:50 media, day 7 and 14, p<0.05.
The mark [6] stands for this setting: 10 ng mL^−1 TGF-β1 versus 10 μm SB431542, day 7.

In the case of `C[C@@H](N)[C@H]1CC[C@H](C(=O)Nc2ccncc2)CC1` [Y-27632], in assay [1] (setting [4]), the “effect on tissue stiffness” value is reported as “did not significantly affect” and the “effect on tissue strength” value was “did not significantly affect”. For the same molecule, the “effect on collagen content” value in assay [2] (0.1, 1.0, 10.0 μM in 50:50 media from 24 h after seeding, 7 or 14 days) was “did not significantly affect”.
For the molecule `NC(=O)c1ccc(-c2nc(-c3ccc4c(c3)OCO4)c(-c3ccccn3)[nH]2)cc1` [SB-431542], in assay [1] (setting [5]), the “effect on tissue stiffness” value is “weakest stiffness and strength”; the “effect on tissue strength” value was “weakest stiffness and strength”. For the same molecule, in assay [2] (0.1, 1.0, 10.0 μM in 50:50 media, any dose or time point), the “effect on collagen content” value is listed as “no effect”.
Regarding “TGF-β1: pleiotropic growth factor and proposed master mediator of fibrotic disorders”, in assay [1] (setting [6]), the “increase in tissue stiffness, TGF-β1 stimulation versus inhibition with SB431542” value is reported as 4.8 fold and the “increase in tissue strength, TGF-β1 stimulation versus inhibition with SB431542” value is on record as 6.5 fold. In addition, in assay [1] (0.4, 2.0, 10 ng mL^−1 in 50:50 media, day 7 and 14, p<0.05), the “effect on tissue mechanics (stiffness and strength)” value is “increased tissue mechanics in a significant dose-dependent manner”. For the same molecule, the “change in collagen content” value in assay [2] (0.4, 2.0, 10 ng mL^−1 in 50:50 media, day 7 and 14) was “not a concomitant change”.
On to cytochalasin, for which the “effect on development of mechanical properties” value in assay [3] is “halts the development of mechanical properties”.
In the case of `Cc1ccc2c(c1)C(=O)C1(O)CCN(c3ccccc3)C1=N2` (stereo not drawn) [blebbistatin], the “effect on development of mechanical properties” value in assay [3] was “halts the development of mechanical properties”.
